From ChEMBL document CHEMBL1148925, “Chaetoglobosins Q, R, and T, three further new metabolites from Chaetomium globosum” (J Nat Prod, 2004)
Converted amounts (≈) assume the structure as drawn.

Key:
[1] = test system: HeLa; assay: Cytotoxicity against human HeLa cells; type: functional, cell-based
[2] = test system: P388; assay: Cytotoxicity against mouse P388 cells; type: functional, cell-based
[3] = test system: Bacillus subtilis; assay: Antibacterial activity against Bacillus subtilis at 15 ug/disk; type: functional; settings: read-out: IZ
[4] = test system: Trichophyton mentagrophytes; assay: Antifungal activity against Trichophyton mentagrophytes at 30 ug/disk; type: functional; settings: read-out: IZ
[5] = test system: Amorphotheca resinae; assay: Antifungal activity against Cladosporium resinae at 15 ug/disk; type: functional; settings: read-out: IZ

| Compound | IC50 [1] | IC50 [2] | zone of inhibition at 15 µg/disc [3] | zone of inhibition at 30 µg/disc [4] | zone of inhibition at 15 µg/disc [5] |
| --- | --- | --- | --- | --- | --- |
| C/C1=C\[C@@H](C)C/C=C/[C@H]2[C@@H]3O[C@]3(C)[C@@H](C)[C@H]3[C@H](Cc4c[nH]c5ccccc45)NC(=O)[C@]32C(=O)CCC(=O)C1=O [CHAETOGLOBOSIN C] | 3.2 µg/mL (≈ 6.05 µM) |  |  |  |  |
| CC1=C[C@@H]2/C=C/C[C@H](C)/C=C(\C)[C@@H](O)C/C=C/C(=O)[C@]23C(=O)N[C@@H](Cc2c[nH]c4ccccc24)[C@@H]3[C@@H]1C [CHEATOGLOBOSIN T] |  | 1.58 µg/mL (≈ 3.17 µM) |  |  |  |
| C=C1[C@@H](C)[C@H]2[C@H](Cc3c[nH]c4ccccc34)NC(=O)[C@]23C(=O)/C=C/C(=O)[C@H](O)/C(C)=C/[C@@H](C)C/C=C/[C@H]3[C@@H]1O [CHEATOGLOBOSIN D] | 3.2 µg/mL (≈ 6.05 µM) | 4.92 µg/mL (≈ 9.31 µM) | 3 mm |  |  |
| CC1=C[C@@H]2/C=C/C[C@H](C)/C=C(\C)CC(=O)/C=C/C(=O)[C@]23C(=O)N[C@@H](Cc2c[nH]c4ccccc24)[C@@H]3[C@@H]1C [PROCHEATOGLOBOSIN II] |  | 3.99 µg/mL (≈ 8.03 µM) |  | 2 mm |  |
| CC1=C[C@@H]2/C=C/C[C@H](C)/C=C(\C)CC/C=C/C(=O)[C@]23C(=O)N[C@@H](Cc2c[nH]c4ccccc24)[C@@H]3[C@@H]1C [PROCHEATOGLOBOSIN I] |  | 3.99 µg/mL (≈ 8.27 µM) |  | 2 mm |  |
| CC1=C(C)[C@H]2[C@H](Cc3c[nH]c4ccccc34)NC(=O)[C@]23C(=O)CC[C@H](O)C(=O)/C(C)=C/[C@@H](C)C/C=C/[C@H]3[C@@H]1O [CHAETOGLOBOSIN E] | 3.2 µg/mL (≈ 6.03 µM) |  |  |  |  |
| CC1=C(C)[C@H]2[C@H](Cc3c[nH]c4ccccc34)NC(=O)[C@]23C(=O)/C=C/C(=O)[C@H](O)/C(C)=C/[C@@H](C)C/C=C/[C@H]3[C@@H]1O [CHEATOGLOBOSIN B] | 3.2 µg/mL (≈ 6.05 µM) | 3.45 µg/mL (≈ 6.53 µM) | 1 mm |  |  |
| C/C1=C\[C@@H](C)C/C=C/[C@H]2[C@@H]3O[C@]3(C)[C@@H](C)[C@H]3[C@H](Cc4c[nH]c5ccccc45)NC(=O)[C@]32C(=O)CC[C@H](O)C1=O [CHAETOGLOBOSIN F] | 3.2 µg/mL (≈ 6.03 µM) |  |  |  |  |
| C/C1=C\[C@@H](C)C/C=C/[C@H]2[C@@H]3O[C@]3(C)[C@@H](C)[C@H]3[C@H](Cc4c[nH]c5ccccc45)NC(=O)[C@]32C(=O)/C=C/C(=O)[C@@H]1O [CHAETOGLOBOSIN A] | 3.2 µg/mL (≈ 6.05 µM) | 1.94 µg/mL (≈ 3.67 µM) | 3 mm |  | 5 mm |
| CC1=C(C)[C@H]2[C@H](Cc3c[nH]c4ccccc34)NC(=O)[C@]23C(=O)CCC(=O)C(=O)/C(C)=C/[C@@H](C)C/C=C/[C@H]3[C@@H]1O [CHEATOGLOBOSIN G] | 3.2 µg/mL (≈ 6.05 µM) |  |  |  |  |
| C/C1=C\[C@@H](C)C/C=C/[C@H]2[C@H](O)[C@](C)(O)[C@@H](C)[C@H]3[C@H](Cc4c[nH]c5ccccc45)NC(=O)[C@]32C(=O)/C=C/C(=O)[C@@H]1O [CHAETOGLOBOSIN Q] |  | 2.19 µg/mL (≈ 4.01 µM) |  |  |  |
| CC1=C[C@@H]2/C=C/C[C@H](C)/C=C(\C)[C@@H](O)C(=O)/C=C/C(=O)[C@]23C(=O)N[C@@H](Cc2c[nH]c4ccccc24)[C@@H]3[C@@H]1C [CHEATOGLOBOSIN J] | 3.2 µg/mL (≈ 6.24 µM) | 2.47 µg/mL (≈ 4.82 µM) | 2 mm |  |  |
